The values below are quoted from earlier work in patent US8993576B2, “6-(1H-indol-4-yl)-4-(5-{[4-1-methylethyl)-1-piperazinyl]methyl}-1,3-oxazol-2-yl)-1H-indazole hemi succinate salt, polymorphs and pharmaceutical compositions thereof” (Glaxo Group Limited, priority 2010, dated 2015).

For data set [1], the system named is neutrophils. The settings on record: treatment of neutrophils; Thelen et al. 1994.
The subject of data set [2] is neutrophils.
In data set [3] the test system is neutrophils. The source holds these as a separate data set.
The next data set addresses CK2 protein kinase (Homo sapiens, UniProt P68400). As to conditions: read-out: IC50 on CK2 protein kinase.

Like-named read-outs stand apart in the source and are kept apart here.

CK2 protein kinase, sequence (P68400 whole entry): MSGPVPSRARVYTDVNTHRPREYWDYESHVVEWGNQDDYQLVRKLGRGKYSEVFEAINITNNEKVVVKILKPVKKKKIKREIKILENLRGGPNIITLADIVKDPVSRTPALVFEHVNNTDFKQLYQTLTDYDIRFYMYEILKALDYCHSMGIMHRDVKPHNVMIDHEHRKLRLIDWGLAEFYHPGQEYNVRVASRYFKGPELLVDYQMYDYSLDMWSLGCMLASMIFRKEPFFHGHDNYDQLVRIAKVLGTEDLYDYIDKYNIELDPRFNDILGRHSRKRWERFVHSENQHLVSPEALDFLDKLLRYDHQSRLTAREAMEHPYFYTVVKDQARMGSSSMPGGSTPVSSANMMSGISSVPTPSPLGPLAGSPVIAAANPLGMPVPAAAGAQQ

In the case of `COC[C@H]1OC(=O)c2coc3c2[C@@]1(C)C1=C(C3=O)[C@@H]2CCC(=O)[C@@]2(C)C[C@H]1OC(C)=O` [wortmannin], the IC50 with Class I PI3-kinases (each of the four Class I PI3-kinases, read-out: IC50 values against each of the various Class I PI3-kinases) was 0.001 to 0.01 µM. The “effect on fMLP-induced respiratory burst response” value in the data set with neutrophils [1] is recorded as “prevents”. For the same molecule, the “effect on neutrophil migration” value in the data set with neutrophils [2] is listed as “block”. Besides, the “effect on superoxide release” value in the data set on neutrophils [3] is “block”.
Turning to `O=c1cc(N2CCOCC2)oc2c(-c3ccccc3)cccc12` [LY294002], the IC50 in the data set on Class I PI3-kinases (each of the Class I PI3-kinases, Fruman et al. 1998, read-out: IC50 values against each of these PI3-kinases) is 15 to 20 µM; on CK2 protein kinase, 5 to 10 µM. Further, the “inhibitory activity on phospholipases” value with phospholipases is recorded as “some inhibitory activity”. In the data set with neutrophils [2], the “effect on neutrophil migration” value is listed as “block”. In addition, in the data set with neutrophils [3], the “effect on superoxide release” value is reported as “block”.
